According to PMC6597546, “Identification of a potent benzoxaborole drug candidate for treating cryptosporidiosis” (Nature Communications, 2019):
“And” between values parts separate entries of the source, which are not always exact repeats. Equal entries are not always repeated. Where two headings read alike, the source gives them in different places.

Columns and labels:
[1] = system: C. parvum invasion of HCT-8 host cells; assay: HCT-8 host cell invasion assay; type: cell-based, Cryptosporidium parvum; conditions: 11.3 µM, HCT-8 invasion 3 h
Description: (§1) The invasion assay, DNA replication assay, asexual to sexual stage conversion, and time-kill curve assays were performed using fluorescence microscopy to enumerate parasites and host cell nuclei. Staining protocols are individually described for each assay. Unless noted otherwise, the details of image acquisition were as follows. An inverted Nikon Eclipse Ti2000 microscope with an automated stage and Perfect Focus was used with NIS-Elements Advanced Research software (Nikon, USA, version 4.30.01) to image the wells. The microscope was programmed to focus on the center of each well and then take a 3 × 3 composite image per well using a 20 × (0.45 NA) objective. Images were exported as .tiff files and parasites and host nuclei counted using a custom macro on ImageJ (National Institutes of Health, version 1.52a). Data were analyzed using Microsoft Excel and GraphPad Prism (version 6.01).
Host cell invasion was assayed by allowing C. parvum to invade host cell monolayers in the presence of compound, and enumerating parasites and host cells after just 3 h (i.e., before completion of a parasite division cycle)[38]. HCT-8 cells were grown in RPMI media supplemented with 120 U per mL penicillin and 120 μg per mL streptomycin and 10% heat inactivated fetal bovine serum (complete media) and C. parvum Iowa isolate oocysts from Bunch Grass Farms (Deary, ID) were used for infection. When cells reached a confluence of >99%, media was removed and replaced with 25 µL per well of fresh media containing twice the indicated concentrations of compounds and incubated for 1 h at 37 °C in a humidified CO2 incubator. In the meantime, oocysts were induced for excystation by first treating with 10 mM hydrochloric acid (diluted with distilled water) for 10 min at 37 °C followed by 2 mM sodium taurocholate (in phosphate buffered saline (PBS) with calcium and magnesium) for 10 min at 16 °C. Before and after each treatment, oocysts were spun down at 14,000 × g for 4.5 min and supernatant was removed. […]

[2] = system: C. parvum DMC1 positive parasites; set-up: method as in PMID 31015448; conditions: cited from earlier work
[3] = system: C. parvum (Bunch Grass Farms Iowa isolate); assay: Time-kill curve assay in HCT-8 cells; type: cell-based, Cryptosporidium parvum; conditions: for time-kill curve result: compound added ~24 h after infection of HCT-8
Description: as §1, with “6.01). […] C. parvum Iowa isolate oocysts (Bunch Grass Farms, Deary, ID) were treated to induce excystation and added to >90% confluent HCT-8 cells in 384-well plates. […] The monolayers were then washed, fixed, and stained with Vicia villosa lectin and DAPI at the indicated time points, and imaged as for the C. parvum growth assay. Separate 384-well plates were used for each time point. Parasite numbers were normalized to host cell nucleus numbers and expressed as the percentage of host cells infected. Drug-induced parasite decay was isolated from the reduction in parasites over time that occurs spontaneously in the HCT-8 culture system by expressing the number of parasites as the percentage of the number of parasites present at each time point under control (DMSO-treated) conditions.” for “6.01).”

C. parvum = C. parvum growth inhibition in HCT-8 cells (follow-up assay, Vicia villosa lectin staining); type: cell-based, Cryptosporidium parvum; conditions: Iowa (BGF, 10%FBS), HCT-8, single replicates, unit inferred, read-out: In vitro efficacy (Fig 2b, EC50)
Description: Follow-up assays were performed at the University of Vermont (UVM) and Calibr at Scripps Research by infection of the colonic adenocarcinoma cell line HCT-8 (ATCC CCL-244) and staining with the Vicia villosa lectin and DAPI[17],[32]. The FBS concentrations and parasites used for these assays were as indicated; parasite isolates and sources included C. parvum Iowa isolate oocysts purchased from Bunch Grass Farm (Deary, ID), C. parvum Iowa isolate oocysts purchased from the Sterling Laboratory (University of Arizona, Tucson, AZ), wild type C. parvum oocysts provided by Dr. Jenni Zambriski (Virginia Tech, Blacksburg, VA), and the C. hominis TU502 isolate purchased from Dr. Saul Tzipori (Tufts University Cummings School of Veterinary Medicine, North Grafton, MA). […] Amphotericin B (Sigma, catalog# A2942) was added to the culture media at 0.1 to 0.5 µg per mL for the DMC1 dose response assays.

[4] = system: C. parvum (Bunch Grass Farms Iowa isolate); assay: NOD scid gamma (NSG) mouse model of established C. parvum infection; type: in vivo, NOD scid gamma mice; conditions: for parasite fecal shedding (qPCR), individual mice: 2,000 mg/kg
Description: NOD scid gamma mice (NOD.Cg-Prkdcscid Il2rgtm1Wjl/SzJ)[55] (NSG) were used to model chronic Cryptosporidium infection. All NSG mouse studies were performed in compliance with animal care guidelines and with approval by the University of Vermont Institutional Animal Care and Use Committee. NSG mice with normal flora were purchased from The Jackson Laboratory (Bar Harbor, ME) and were housed for at least a week for acclimatization. […] Fecal parasite shedding was measured using a quantitative PCR (qPCR) assay, and the primers named above as Cp18s forward and Cp18s reverse.

CN(C)C[C@H](O)Cn1c2ccc(Br)cc2c2cc(Br)ccc21 (racemic) [Wiskostatin, wiskostatin]
% Inhibition (normalized to DMSO control) [1]: 92% | inhibition at 11.3 µM ([1]; Cryptosporidium parvum, HCT-8, 3 h, read-out: % Inhibition (normalized to DMSO control)): 90%

O=C(Nc1ccc(Cl)cc1)N1CCN(c2ccc3nncn3n2)CC1 [MMV665917]
potency against asexual vs sexual stage parasites [2]: equal potency against asexual and sexual stage parasites

CC(=O)Oc1ccccc1C(=O)Nc1ncc([N+](=O)[O-])s1 [Nitazoxanide, nitazoxanide]
% C. parvum relative to DMSO control ([3]; EC90, 0 h exposure): 92.14% and 109.39% and 105.07% and 102.65% | % C. parvum relative to DMSO control ([3]; EC90, 6 h exposure): 89.44% and 63.73% and 107.77% and 101.99% | % C. parvum relative to DMSO control ([3]; EC90, 12 h exposure): 64.07% and 50.47% and 61.96% and 52.34% | % C. parvum relative to DMSO control ([3]; EC90, 24 h exposure): 33.99% and 23.15% and 39.39% and 30.38% | % C. parvum relative to DMSO control ([3]; EC90, 48 h exposure): 66.11% and 87.75% and 96.10% and 82.36% | % C. parvum relative to DMSO control ([3]; EC90, 72 h exposure): 59.95% and 89.51% and 62.55% and 99.92% | time-kill curve result [3]: likely parasitistatic or very slow acting | time-kill curve result ([3]; listed as NTZ): No exponential decay curve can be fit | % Parasite / host nuclei ([3]; compound at 3 x EC90, 0 h exposure, listed as Nitazonxanide): 25.13% and 23.57% and 25.93% and 26.94% | % Parasite / host nuclei ([3]; compound at 3 x EC90, 6 h exposure, listed as Nitazonxanide): 30.07% and 28.12% and 27.66% | % Parasite / host nuclei ([3]; compound at 3 x EC90, 24 h exposure, listed as Nitazonxanide): 13.35% and 18.43% and 17.09% and 15.85% | % Parasite / host nuclei ([3]; compound at 3 x EC90, 48 h exposure, listed as Nitazonxanide): 16.05% and 22.2% and 25.78% and 20.53% | % Parasite / host nuclei ([3]; compound at 3 x EC90, 72 h exposure): Toxic | % Parasite / host nuclei ([3]; compound at 6 x EC90, 0 h exposure, listed as Nitazonxanide): 26.94% and 25.13% and 23.57% and 25.93% | % Parasite / host nuclei ([3]; compound at 6 x EC90, 6 h exposure, listed as Nitazonxanide): 30.15% and 26.39% and 33.45% and 27.12% | % Parasite / host nuclei ([3]; compound at 6 x EC90, 24 h exposure, listed as Nitazonxanide): 10.66% and 16.54% and 13.19% and 15.55% | % Parasite / host nuclei ([3]; compound at 6 x EC90, 48 h exposure, listed as Nitazonxanide): 24.32% and 23.51% and 19.71% and 19.93% | % Parasite / host nuclei ([3]; compound at 6 x EC90, 72 h exposure): Toxic | % Parasite / host nuclei ([3]; compound at 9 x EC90, 0 h exposure, listed as Nitazonxanide): 26.94% and 25.13% and 23.57% and 25.93% | % Parasite / host nuclei ([3]; compound at 9 x EC90, 6 h exposure, listed as Nitazonxanide): 26.17% and 22.66% and 19.45% and 20.04% | % Parasite / host nuclei ([3]; compound at 9 x EC90, 24 h exposure, listed as Nitazonxanide): 13.32% and 10.07% and 14.28% and 12.9% | % Parasite / host nuclei ([3]; compound at 9 x EC90, 48 h exposure, listed as Nitazonxanide): 23.17% and 21.12% and 20.67% and 21.26% | % Parasite / host nuclei ([3]; compound at 9 x EC90, 72 h exposure): Toxic | % Parasite / host nuclei ([3]; compound at 12 x EC90, 0 h exposure, listed as Nitazonxanide): 26.94% and 25.13% and 23.57% and 25.93% | % Parasite / host nuclei ([3]; compound at 12 x EC90, 24 h exposure, listed as Nitazonxanide): 12.84% and 10.89% and 15.16% and 10.85% | % Parasite / host nuclei ([3]; compound at 12 x EC90, 48 h exposure, listed as Nitazonxanide): 17.1% and 18.74% and 17.39% and 22.34% | % Parasite / host nuclei ([3]; compound at 12 x EC90, 72 h exposure): Toxic | % Parasite / host nuclei ([3]; compound at EC50, 0 h exposure, listed as Nitazonxanide): 26.94% and 25.13% and 23.57% and 25.93% | % Parasite / host nuclei ([3]; compound at EC50, 6 h exposure, listed as Nitazonxanide): 25.94% and 27.24% and 39.66% and 24.06% | % Parasite / host nuclei ([3]; compound at EC50, 24 h exposure, listed as Nitazonxanide): 49.74% and 52.37% and 49.99% and 64.54% | % Parasite / host nuclei ([3]; compound at EC50, 48 h exposure, listed as Nitazonxanide): 50.13% and 44.73% and 56.15% and 36.04% | % Parasite / host nuclei ([3]; compound at EC50, 72 h exposure, listed as Nitazonxanide): 36.74% and 33.35% and 25.45% and 34.5% | % Parasite / host nuclei ([3]; compound at EC90, 0 h exposure, listed as Nitazonxanide): 26.94% and 25.13% and 23.57% and 25.93% | % Parasite / host nuclei ([3]; compound at EC90, 6 h exposure, listed as Nitazonxanide): 29.07% | % Parasite / host nuclei ([3]; compound at EC90, 24 h exposure, listed as Nitazonxanide): 18.51% and 12.77% and 20.62% and 15.68% | % Parasite / host nuclei ([3]; compound at EC90, 48 h exposure, listed as Nitazonxanide): 23.29% and 31.8% and 31.94% and 28.34% | % Parasite / host nuclei ([3]; compound at EC90, 72 h exposure, listed as Nitazonxanide): 16.17% and 23.44% and 16.12% and 24.86% | EC50 (C. parvum; Cryptosporidium parvum, HCT-8, in Vicia villosa): 1190 nM | EC50 (C. parvum): 2090 nM and 1750 nM

NC[C@@H]1O[C@H](O[C@H]2[C@@H](O)[C@H](O[C@@H]3[C@@H](O)[C@H](N)C[C@H](N)[C@H]3O[C@H]3O[C@H](CO)[C@@H](O)[C@H](O)[C@H]3N)O[C@@H]2CO)[C@H](N)[C@@H](O)[C@@H]1O [Paromomycin, paromomycin, reference compound]
parasite fecal shedding (qPCR), individual mice ([4]; D7 (before treatment)): 801.749 oocysts/mg feces and 822.565 oocysts/mg feces and 435.223 oocysts/mg feces and 38.903 oocysts/mg feces | parasite fecal shedding (qPCR), individual mice ([4]; D11): 28.872 oocysts/mg feces and 141.665 oocysts/mg feces and 45.072 oocysts/mg feces and 47.829 oocysts/mg feces | reduction of fecal parasite shedding ([4]; paromomycin positive control, after 4 days of treatment, once daily oral): ~90%
